Key:
[1] = test system: anaerobic mixed culture (domestic sewage); experiment: Anaerobic digestion of domestic sewage, overall effect of formate salt concentration; details: for effect on anaerobic digestion over the tested concentration range: 10 mg/L to 100,000 mg/L based on the organic matter available for digestion
Experimental: The various formate salts include, but are not limited to sodium formate (NaHCOO), potassium formate (KHCOO), ammonium formate (NH4COO), calcium formate (Ca(HCOO)2), and others either singly or in combination. These formate salts have been tested for concentrations ranging from 10 mg/L (˜10 ppm) to as high as […] (100,000 mg/L) based on the organic matter available for digestion.
Two tests were run in which sodium formate in concentrations ranging from a few parts per million (ppm) up to ten percent (10%) on a mass basis were added to samples taken from a publicly owned anaerobic digester. The samples were first cultured in laboratory sized batch reactors. The twelve batch reactors were then sampled, and studied for periods of up to fifty-five days. The process variables that were monitored included COD (Chemical Oxygen Demand), TS (Total Solids), TVS (Total Volatile Solids) and the pH of the culture. Time and the initial sodium formate concentration level were the independent variables. Finally measurements were also made of the bacterial counts at the beginning and at the end of the fifty five day period.
Municipal sludge from the city of Lubbock, Wastewater Treatment Plant was digested in 12 batch digesters. Using twelve batch reactors allowed the collection of control reactors data (i.e., no formate in the reactors) in triplicate, titration studies of increasing formate concentration, and duplicates/triplicates of varying formate concentration. Experiments were conducted in the laboratories of Texas Tech University.

[2] = test system: microorganisms in domestic sewage; details: sodium chloride spike; cited from earlier work

Row | Structure (SMILES) | effect on anaerobic digestion over the tested concentration range [1] | concentration range of greatest effects ([1]; 10 mg/L to 100,000 mg/L tested) | toxicity of sodium levels [2]
1 | N.O=CO [ammonium formate] | initiate the inhibition of digestion at concentrations above a few thousand mg/L |  | 
2 | O=C[O-].[K+] [potassium formate] | beneficial at all concentration levels | greatest effects being observed over the 100 ppm to the 2,000-mg/L range | 
3 | [Cl-].[Na+] [sodium chloride] |  |  | toxic to all microorganisms in domestic sewage at levels above three to four percent

Reference: patent US20020162794A1, “Anaerobic digestion” (priority 2001, published 2002)
